{"source": "patent US20030119882A1", "about": "“Solid pharmaceutical composition containing torasemide” (priority 2001, published 2003)", "origin": "cited, not measured here", "conditions": "present in very fine dispersion in a pharmaceutical tablet; prior art, cf. EP 212 537 A"}
{"compound": "Cc1cccc(Nc2ccncc2S(=O)(=O)NC(=O)NC(C)C)c1", "note": "[torasemide of the modification II, 1-isopropyl-3-[(4-m-toluidino-3-pyridyl)sulphonyl]urea]", "values": [{"measurement": "Rearrangement of modification II to modification I", "value": "rearranges more or less rapidly to the modification I"}]}
